Where a name gives a salt, the structure may show the parent alone. Read-outs that look alike come from different tables or passages of the source.
Biological target: T1, HCV polymerase (Hepatitis C virus genotype 1b, UniProt P26663)
T1 construct: a region encoding NS5B (J Virol 1991 March, 65(3), 1105-13, 544 amino acids after deletion of 47 amino acids on the C-terminal); 6xHis (C); made in house; host or cells: Escherichia coli
Test: biochemical
Set-up: species or system HCV BK strain
Summary of the method: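 His-tagged NS5B (BK strain, 47-aa C-terminal deletion, E. coli-expressed) at 0.5 μg/ml copied 5 μg/ml run-off RNA bearing the HCV 3′ UTR with 2 μM UTP plus [3H]UTP, 50 μM ATP/GTP, in pH 7.5 Tris with 5 mM MgCl2, 25 °C, 90 min. TCA-precipitated RNA was counted and IC50 calculated.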

T1 sequence (P26663 2420-2963): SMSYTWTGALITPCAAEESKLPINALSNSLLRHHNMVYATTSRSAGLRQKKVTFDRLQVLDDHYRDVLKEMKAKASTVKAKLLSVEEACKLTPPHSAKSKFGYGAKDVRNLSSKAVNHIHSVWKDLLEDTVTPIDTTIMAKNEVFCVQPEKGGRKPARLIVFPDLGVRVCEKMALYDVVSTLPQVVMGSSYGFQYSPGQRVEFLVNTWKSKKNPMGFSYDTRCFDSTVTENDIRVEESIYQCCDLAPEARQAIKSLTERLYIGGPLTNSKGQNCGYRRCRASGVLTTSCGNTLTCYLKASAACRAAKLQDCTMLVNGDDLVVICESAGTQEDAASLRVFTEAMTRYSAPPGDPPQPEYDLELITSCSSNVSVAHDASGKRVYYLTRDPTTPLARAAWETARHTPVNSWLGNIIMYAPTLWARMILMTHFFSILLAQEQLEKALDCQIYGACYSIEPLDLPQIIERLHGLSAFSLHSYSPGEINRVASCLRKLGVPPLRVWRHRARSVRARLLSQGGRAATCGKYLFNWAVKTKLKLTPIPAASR

SMILES	IC50 [nM]	IC50 (25° C., 90 min, [5,6-3H]UTP incorporation into RNA, read-out: HCV polymerase inhibitory activity IC50) [nM]
O=C(O)c1ccc2c(C3CCCCC3)c3n(c2c1)CCN(CCN1CCC[C@@H](CCOc2ccccc2)C1)c1ccccc1-3 [Example 1-444, 13-cyclohexyl-5-{2-[(S)-3-(2-phenoxyethyl)piperidin-1-yl]ethyl}-6,7-dihydro-5H-benzo[5,6][1,4]diazepino[7,1-a]indole-10-carboxylic acid dihydrochloride]	< 100	
COCC[C@@H]1CCCN(CCN2CCn3c(c(C4CCCCC4)c4ccc(C(=O)O)cc43)-c3ccc(OC)cc32)C1 [Example 1-445, 13-cyclohexyl-3-methoxy-5-{2-[(S)-3-(2-methoxyethyl)piperidin-1-yl]ethyl}-6,7-dihydro-5H-benzo[5,6][1,4]diazepino[7,1-a]indole-10-carboxylic acid dihydrochloride]	< 100	
CSc1ccc2c(c1)N(C)CCn1c-2c(C2CCCCC2)c2ccc(C(=O)NC3(C(=O)Nc4ccc(/C=C/C(=O)O)cc4)CCC3)cc21 [Example 1-450, (E)-3-[4-({1-[(13-cyclohexyl-5-methyl-3-methylsulfanyl-6,7-dihydro-5H-benzo[5,6][1,4]diazepino[7,1-a]indole-10-carbonyl)amino]cyclobutanecarbonyl}amino)phenyl]acrylic acid]	< 100	
Cc1ccc2c(c1)N(CCN1CCCCC1)CCn1c-2c(C2CCCCC2)c2ccc(C(=O)O)c(Cl)c21 [Example 1-451, 9-chloro-13-cyclohexyl-3-methyl-5-[2-(piperidin-1-yl)ethyl]-6,7-dihydro-5H-benzo[5,6][1,4]diazepino[7,1-a]indole-10-carboxylic acid dihydrochloride]	< 100	
Cc1ccc2c(c1)N(C)CCn1c-2c(C2CCCCC2)c2ccc(C(=O)O)c(Cl)c21 [Example 1-452, 9-chloro-13-cyclohexyl-3,5-dimethyl-6,7-dihydro-5H-benzo[5,6][1,4]diazepino[7,1-a]indole-10-carboxylic acid]	< 100	
COC(=O)C(Cc1ccc(O)cc1)NC(=O)c1ccc2c(C3CCCCC3)c3n(c2c1)CCN(C)c1cc(C)ccc1-3 [Example 1-473, methyl (S)-2-[(13-cyclohexyl-3,5-dimethyl-6,7-dihydro-5H-benzo[5,6][1,4]diazepino[7,1-a]indole-10-carbonyl)amino]-3-(4-hydroxyphenyl)propionate]		< 100
CCN1CCn2c(c(C3CCCCC3)c3ccc(C(=O)O)cc32)-c2ccc(OC)cc21 [Example 1-474, 13-cyclohexyl-5-ethyl-3-methoxy-6,7-dihydro-5H-benzo[5,6][1,4]diazepino[7,1-a]indole-10-carboxylic acid]	< 100	
COc1ccc2c(c1)N(C(C)C)CCn1c-2c(C2CCCCC2)c2ccc(C(=O)O)cc21 [Example 1-475, 13-cyclohexyl-5-isopropyl-3-methoxy-6,7-dihydro-5H-benzo[5,6][1,4]diazepino[7,1-a]indole-10-carboxylic acid monohydrochloride]	< 100	
Cc1ccc2c(c1)N(CC(=O)N1CCCOCC1)CCn1c-2c(C2CCCCC2)c2ccc(C(=O)O)cc21 [Example 1-476, sodium salt of 13-cyclohexyl-3-methyl-5-[2-(1,4-oxazepan-4-yl)-2-oxoethyl]-6,7-dihydro-5H-benzo[5,6][1,4]diazepino[7,1-a]indole-10-carboxylic acid]	< 100	
CCN1CCn2c(c(C3CCCCC3)c3ccc(C(=O)NC4(C(=O)Nc5ccc(/C=C/C(=O)O)cc5)CCC4)cc32)-c2ccc(OC)cc21 [Example 1-477, (E)-3-[4-({1-[(13-cyclohexyl-5-ethyl-3-methoxy-6,7-dihydro-5H-benzo[5,6][1,4]diazepino[7,1-a]indole-10-carbonyl)amino]cyclobutanecarbonyl}amino)phenyl]acrylic acid]	< 100	
COc1ccc2c(c1)N(C(C)C)CCn1c-2c(C2CCCCC2)c2ccc(C(=O)NC3(C(=O)Nc4ccc(/C=C/C(=O)O)cc4)CCC3)cc21 [Example 1-478, (E)-3-[4-({1-[(13-cyclohexyl-5-isopropyl-3-methoxy-6,7-dihydro-5H-benzo[5,6][1,4]diazepino[7,1-a]indole-10-carbonyl)amino]cyclobutanecarbonyl}amino)phenyl]acrylic acid]	< 100	
COCCN1CCn2c(c(C3CCCCC3)c3ccc(C(=O)O)cc32)-c2ccc(OC)cc21 [Example 1-479, 13-cyclohexyl-3-methoxy-5-(2-methoxyethyl)-6,7-dihydro-5H-benzo[5,6][1,4]diazepino[7,1-a]indole-10-carboxylic acid]	< 100	
COc1ccc2c(c1)N(CCOC(C)C)CCn1c-2c(C2CCCCC2)c2ccc(C(=O)O)cc21 [Example 1-480, 13-cyclohexyl-5-(2-isopropoxyethyl)-3-methoxy-6,7-dihydro-5H-benzo[5,6][1,4]diazepino[7,1-a]indole-10-carboxylic acid]	< 100	
COCCN1CCn2c(c(C3CCCCC3)c3ccc(C(=O)NC4(C(=O)Nc5ccc(/C=C/C(=O)O)cc5)CCC4)cc32)-c2ccc(OC)cc21 [Example 1-481, (E)-3-{4-[(1-{[13-cyclohexyl-3-methoxy-5-(2-methoxyethyl)-6,7-dihydro-5H-benzo[5,6][1,4]diazepino[7,1-a]indole-10-carbonyl]amino}cyclobutanecarbonyl)amino]phenyl}acrylic acid]	< 100	
COc1ccc2c(c1)N(CCOC(C)C)CCn1c-2c(C2CCCCC2)c2ccc(C(=O)NC3(C(=O)Nc4ccc(/C=C/C(=O)O)cc4)CCC3)cc21 [Example 1-482, (E)-3-{4-[(1-{[13-cyclohexyl-5-(2-isopropoxyethyl)-3-methoxy-6,7-dihydro-5H-benzo[5,6][1,4]diazepino[7,1-a]indole-10-carbonyl]amino}cyclobutanecarbonyl)amino]phenyl}acrylic acid]	< 100	
COc1ccc2c(c1)N(CC(C)C)CCn1c-2c(C2CCCCC2)c2ccc(C(=O)O)cc21 [Example 1-483, 13-cyclohexyl-5-isobutyl-3-methoxy-6,7-dihydro-5H-benzo[5,6][1,4]diazepino[7,1-a]indole-10-carboxylic acid]	< 100	
COc1ccc2c(c1)N(CC(C)C)CCn1c-2c(C2CCCCC2)c2ccc(C(=O)NC3(C(=O)Nc4ccc(/C=C/C(=O)O)cc4)CCC3)cc21 [Example 1-484, (E)-3-[4-({1-[(13-cyclohexyl-5-isobutyl-3-methoxy-6,7-dihydro-5H-benzo[5,6][1,4]diazepino[7,1-a]indole-10-carbonyl)amino]cyclobutanecarbonyl}amino)phenyl]acrylic acid]	< 100	
O=C(O)c1ccc2c(C3CCCCC3)c3n(c2c1)CCN(CCN1CCC[C@H](COc2ccccc2)C1)c1ccccc1-3 [Example 1-485, 13-cyclohexyl-5-[2-((S)-3-phenoxymethylpiperidin-1-yl)ethyl]-6,7-dihydro-5H-benzo[5,6][1,4]diazepino[7,1-a]indole-10-carboxylic acid dihydrochloride]	< 100	
O=C(O)c1ccc2c(C3CCCCCC3)c3n(c2c1)CCN(CCN1CCCCC1)c1cc(Cl)ccc1-3 [Example 1-486, 3-chloro-13-cycloheptyl-5-[2-(piperidin-1-yl)ethyl]-6,7-dihydro-5H-benzo[5,6][1,4]diazepino[7,1-a]indole-10-carboxylic acid]	< 100	
Cc1ccc2c(c1)N(CCC13CCC(CC1)N3Cc1ccccc1)CCn1c-2c(C2CCCCC2)c2ccc(C(=O)O)cc21 [Example 1-487, 5-[2-(7-benzyl-7-azabicyclo[2.2.1]hept-1-yl)ethyl]-13-cyclohexyl-3-methyl-6,7-dihydro-5H-benzo[5,6][1,4]diazepino[7,1-a]indole-10-carboxylic acid]	< 100	
Cc1ccc2c(c1)N(CCC13CCC(CC1)N3)CCn1c-2c(C2CCCCC2)c2ccc(C(=O)O)cc21 [Example 1-488, 5-[2-(7-azabicyclo[2.2.1]hept-1-yl)ethyl]-13-cyclohexyl-3-methyl-6,7-dihydro-5H-benzo[5,6][1,4]diazepino[7,1-a]indole-10-carboxylic acid monohydrochloride]	< 100	
Cc1ccc2c(c1)N(CCC13CCC(CC1)N3CC(=O)O)CCn1c-2c(C2CCCCC2)c2ccc(C(=O)O)cc21 [Example 1-489, 5-[2-(7-carboxymethyl-7-azabicyclo[2.2.1]hept-1-yl)ethyl]-13-cyclohexyl-3-methyl-6,7-dihydro-5H-benzo[5,6][1,4]diazepino[7,1-a]indole-10-carboxylic acid]	< 100	
N#Cc1ccc2c(c1)N(CCN1CCCCC1)CCn1c-2c(C2CCCCC2)c2ccc(C(=O)O)cc21 [Example 1-490, 3-cyano-13-cyclohexyl-5-[2-(piperidin-1-yl)ethyl]-6,7-dihydro-5H-benzo[5,6][1,4]diazepino[7,1-a]indole-10-carboxylic acid monohydrochloride]	< 100	
NC(=O)c1ccc2c(c1)N(CCN1CCCCC1)CCn1c-2c(C2CCCCC2)c2ccc(C(=O)O)cc21 [Example 1-491, 3-carbamoyl-13-cyclohexyl-5-[2-(piperidin-1-yl)ethyl]-6,7-dihydro-5H-benzo[5,6][1,4]diazepino[7,1-a]indole-10-carboxylic acid monohydrochloride]	< 100	
Cc1ccc2c(c1)N(CCC1CCCCC1)CCn1c-2c(C2CCCCC2)c2ccc(C(=O)O)cc21 [Example 1-492, 13-cyclohexyl-5-(2-cyclohexylethyl)-3-methyl-6,7-dihydro-5H-benzo[5,6][1,4]diazepino[7,1-a]indole-10-carboxylic acid]	< 100	
CCN(CC)CCCCN1CCn2c(c(C3CCCCC3)c3ccc(C(=O)O)cc32)-c2ccc(C)cc21 [Example 1-493, 13-cyclohexyl-5-(4-diethylaminobutyl)-3-methyl-6,7-dihydro-5H-benzo[5,6][1,4]diazepino[7,1-a]indole-10-carboxylic-acid dihydrochloride]	< 100	

From patent US20070049593A1 (priority 2004, published 2007)
